Here are results for 31 molecules from patent US20260315492A1, “5,6-FUSED BICYCLIC AMIDES AND COMPOSITIONS FOR USE AS 15-PROSTAGLANDIN DEHYDROGENASE MODULATORS” (AMGEN INC., priority 2023, published 2026).

SMILES strings stand for the structures.

For this test, the target named is T1, human recombinant 15-PGDH (Homo sapiens, UniProt P15428).
T1 sequence (P15428 1-266): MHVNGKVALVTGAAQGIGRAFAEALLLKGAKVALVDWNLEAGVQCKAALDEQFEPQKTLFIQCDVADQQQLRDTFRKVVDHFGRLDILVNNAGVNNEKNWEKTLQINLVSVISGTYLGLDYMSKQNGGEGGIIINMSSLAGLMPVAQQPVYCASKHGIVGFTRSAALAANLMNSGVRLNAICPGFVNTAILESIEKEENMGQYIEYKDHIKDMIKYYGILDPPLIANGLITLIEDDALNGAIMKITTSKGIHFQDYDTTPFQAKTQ
The test can be described thus: Inhibition of recombinant 15-PGDH enzymatic activity (NADH quantification after addition of PGE2 and NAD+). It is filed as biochemical. To be noted: recombinant 15-PGDH; 15 min pre-incubation, 60-minute reaction, room temperature, pH 7.5; PGE2 and NAD+; read-out: PGDH-Lumi IC50. On the procedure: The compound dose-response of its inhibition of 15-PGDH activity was determined in human recombinant 15-PGDH enzymatical assays. These assays measured 15-PGDH enzymatic activity by quantifying the amount of NADH produced during a 60-minute reaction initiated by the addition of PGE2 and NAD+. Under the conditions of these experiments, the increase of NADH signal upon oxidation of PGE2 and reduction of NAD+ was linearly proportional to 15-PGDH enzymatic activity. The recombinant human, mouse, rat and dog 15-PGDH enzymatic assays were performed in a 25 μL volume of reaction buffer containing 50 mM Tris, pH 7.5, 0.01% Tween-20 and 100 μM DTT in a 384-well microtiter plate. In concentration-response experiments with tested compounds, 22 concentrations from 2-fold serial dilutions in DMSO were pre-incubated with 15-PGDH for 15 minutes at room temperature. Then, PGE2 and ß-NAD+ were added to initiate the 15-PGDH reaction. After 60 minutes at room temperature, the reaction was quenched and NADH signal was measured using a microtiter plate reader.
The following data (Table 11-1) provides the IC50 of each compound for inhibiting enzymatic activity of recombinant 15-PGDH in the assay described above.
In the case of `Cn1cnc(-c2ccc3cc(C(=O)N4CCOCC4)sc3n2)cc1=O` [Compound B39, 3-methyl-6-(2-(4-morpholinylcarbonyl)thieno[2,3-b]pyridin-6-yl)-4(3H)-pyrimidinone], the concentration for half-maximal inhibition (IC50) is 128 nM.

Consider `Cn1cc2cc(-c3ccc4cc(C(=O)N5CCOC(C)(C)C5)sc4n3)cnc2n1` [Compound B40, (2,2-dimethyl-4-morpholinyl)(6-(2-methyl-2H-pyrazolo[3,4-b]pyridin-5-yl)thieno[2,3-b]pyridin-2-yl)methanone], for which the IC50 came to 1.97 nM.

In the case of `O=C(c1cc2ccc(-c3ccc(=O)[nH]c3)nc2s1)N1CCOCC1` [Compound B41, 5-(2-(4-morpholinylcarbonyl)thieno[2,3-b]pyridin-6-yl)-2(1H)-pyridinone], the 50% inhibitory concentration (IC50) came out at 641 nM.

On to `Cn1nc2cc(-c3ccc4cc(C(=O)N5CCOCC5)sc4n3)cnc2n1` [Compound B42, (6-(2-methyl-2H-[1,2,3]triazolo[4,5-b]pyridin-6-yl)thieno[2,3-b]pyridin-2-yl)(4-morpholinyl)methanone], for which the concentration for half-maximal inhibition (IC50) is 6.33 nM.

In the case of `C[C@@H]1COCCN1C(=O)c1cc2ccc(-c3cnc4nn(C)nc4c3)nc2s1` [Compound B43R, ((3R)-3-methyl-4-morpholinyl)(6-(2-methyl-2H-[1,2,3]triazolo[4,5-b]pyridin-6-yl)thieno[2,3-b]pyridin-2-yl)methanone], the 50% inhibitory concentration (IC50) stood at 40.3 nM.

On to `C[C@H]1COCCN1C(=O)c1cc2ccc(-c3cnc4nn(C)nc4c3)nc2s1` [Compound B43S, ((3S)-3-methyl-4-morpholinyl)(6-(2-methyl-2H-[1,2,3]triazolo[4,5-b]pyridin-6-yl)thieno[2,3-b]pyridin-2-yl)methanone], for which the half-inhibitory concentration (IC50) was determined as 23.4 nM.

Take `C[C@@H]1COCCN1C(=O)c1cc2ccc(-c3cnc4c(c3)nnn4C)nc2s1` [Compound B44R, ((3R)-3-methyl-4-morpholinyl)(6-(3-methyl-3H-[1,2,3]triazolo[4,5-b]pyridin-6-yl)thieno[2,3-b]pyridin-2-yl)methanone]: the half-maximal inhibitory concentration (IC50) came out at 56.7 nM.

With `C[C@H]1COCCN1C(=O)c1cc2ccc(-c3cnc4c(c3)nnn4C)nc2s1` [Compound B44S, ((3S)-3-methyl-4-morpholinyl)(6-(3-methyl-3H-[1,2,3]triazolo[4,5-b]pyridin-6-yl)thieno[2,3-b]pyridin-2-yl)methanone], the IC50 amounted to 54.2 nM.

Regarding `Cn1cc2cc(-c3ccc4cc(C(=O)N5CCOCC56CC6)sc4n3)cnc2n1` [Compound B45, (6-(2-methyl-2H-pyrazolo[3,4-b]pyridin-5-yl)thieno[2,3-b]pyridin-2-yl)(7-oxa-4-azaspiro[2.5]octan-4-yl)methanone], the half-maximal inhibitory concentration (IC50) worked out at 46.1 nM.

As to `Cn1cc2cc(-c3ccc4cc(C(=O)N5CCOC(C(F)(F)F)C5)sc4n3)cnc2n1` (stereo not shown) [Compound B46, (6-(2-methyl-2H-pyrazolo[3,4-b]pyridin-5-yl)thieno[2,3-b]pyridin-2-yl)(2-(trifluoromethyl)-4-morpholinyl)methanone], the IC50 was found to be 2.6 nM.

For `Cn1cc2cc(-c3ccc4cc(C(=O)N5CCOC6(CC6)C5)sc4n3)cnc2n1` [Compound B47, (6-(2-methyl-2H-pyrazolo[3,4-b]pyridin-5-yl)thieno[2,3-b]pyridin-2-yl)(4-oxa-7-azaspiro[2.5]octan-7-yl)methanone], the 50% inhibitory concentration (IC50) amounted to 0.712 nM.

For the molecule `C[C@@H]1COCCN1C(=O)c1cc2ccc(-c3ccc(=O)[nH]c3)nc2s1` [Compound B48R, 5-(2-(((3R)-3-methyl-4-morpholinyl)carbonyl)thieno[2,3-b]pyridin-6-yl)-2(1H)-pyridinone], the IC50 came to 1030 nM.

As to `C[C@H]1COCCN1C(=O)c1cc2ccc(-c3ccc(=O)[nH]c3)nc2s1` [Compound B48S, 5-(2-(((3S)-3-methyl-4-morpholinyl)carbonyl)thieno[2,3-b]pyridin-6-yl)-2(1H)-pyridinone], the IC50 was found to be 986 nM.

Consider `O=C(c1cc2ccc(-c3ccc4ncccc4c3)nc2s1)N1CCOCC1` [Compound B49, 4-morpholinyl(6-(6-quinolinyl)thieno[2,3-b]pyridin-2-yl)methanone], for which the half-maximal inhibitory concentration (IC50) was found to be 77.8 nM.

Turning to `Cn1cnc2ncc(-c3ccc4cc(C(=O)N5CCOCC5)sc4n3)cc21` [Compound B50, (6-(1-methyl-1H-imidazo[4,5-b]pyridin-6-yl)thieno[2,3-b]pyridin-2-yl)(4-morpholinyl)methanone], the half-inhibitory concentration (IC50) stood at 2.64 nM.

With `Cn1cc2cc(-c3ccc4cc(C(=O)N5CCOCC56COC6)sc4n3)cnc2n1` [Compound B51, 2,8-dioxa-5-azaspiro[3.5]nonan-5-yl(6-(2-methyl-2H-pyrazolo[3,4-b]pyridin-5-yl)thieno[2,3-b]pyridin-2-yl)methanone], the half-maximal inhibitory concentration (IC50) is 340 nM.

Turning to `Cn1cc2cc(-c3ccc4cc(C(=O)N5CCOC6CC65)sc4n3)cnc2n1` (stereo not shown) [Compound B53, (6-(2-methyl-2H-pyrazolo[3,4-b]pyridin-5-yl)thieno[2,3-b]pyridin-2-yl)(2-oxa-5-azabicyclo[4.1.0]heptan-5-yl)methanone], the IC50 is 1.81 nM.

With `Cn1nnc2cc(-c3ccc4cc(C(=O)N5CCOCC5)sc4n3)cnc21` [Compound B54, (6-(3-methyl-3H-[1,2,3]triazolo[4,5-b]pyridin-6-yl)thieno[2,3-b]pyridin-2-yl)(4-morpholinyl)methanone], the IC50 was 16.1 nM.

On to `C[C@H]1COCCN1C(=O)c1cc2ccc(-c3ccc4ncccc4c3)nc2s1` [Compound B55S, ((3S)-3-methyl-4-morpholinyl)(6-(6-quinolinyl)thieno[2,3-b]pyridin-2-yl)methanone], for which the IC50 is 144 nM.

As for `O=C(c1cc2ccc(-c3cnc4nccnc4c3)nc2s1)N1CCOCC1` [Compound B56, 4-morpholinyl(6-(pyrido[2,3-b]pyrazin-7-yl)thieno[2,3-b]pyridin-2-yl)methanone], the IC50 is 5.91 nM.

On to `C[C@H]1COCCN1C(=O)c1cc2ccc(-c3cnc4nccnc4c3)nc2s1` [Compound B57S, ((3S)-3-methyl-4-morpholinyl)(6-(pyrido[2,3-b]pyrazin-7-yl)thieno[2,3-b]pyridin-2-yl)methanone], for which the IC50 came out at 10.3 nM.

For `Cn1ccc2cc(-c3ccc4cc(C(=O)N5CCOCC5)sc4n3)cnc2c1=O` [Compound B58, 7-methyl-3-(2-(4-morpholinylcarbonyl)thieno[2,3-b]pyridin-6-yl)-1,7-naphthyridin-8(7H)-one], the 50% inhibitory concentration (IC50) worked out at 8.15 nM.

Turning to `Cn1cc2cc(-c3ccc4cc(C(=O)N5CCOCC56CCC6)sc4n3)cnc2n1` [Compound B59, (6-(2-methyl-2H-pyrazolo[3,4-b]pyridin-5-yl)thieno[2,3-b]pyridin-2-yl)(8-oxa-5-azaspiro[3.5]nonan-5-yl)methanone], the IC50 was determined as 46.4 nM.

Consider `C[C@@H]1COCCN1C(=O)c1cc2ccc(-c3cnc4nccnc4c3)nc2s1` [Compound B60R, ((3R)-3-methyl-4-morpholinyl)(6-(pyrido[2,3-b]pyrazin-7-yl)thieno[2,3-b]pyridin-2-yl)methanone], for which the concentration for half-maximal inhibition (IC50) is 10.6 nM.

As for `C[C@@H]1COCCN1C(=O)c1cc2ccc(-c3ccc4ncccc4c3)nc2s1` [Compound B61R, ((3R)-3-methyl-4-morpholinyl)(6-(6-quinolinyl)thieno[2,3-b]pyridin-2-yl)methanone], the IC50 was determined as 189 nM.

For the molecule `C[C@@H]1COCCN1C(=O)c1cc2ccc(-c3cnc4c(=O)n(C)ccc4c3)nc2s1` [Compound B62R, 7-methyl-3-(2-(((3R)-3-methyl-4-morpholinyl)carbonyl)thieno[2,3-b]pyridin-6-yl)-1,7-naphthyridin-8(7H)-one], the IC50 was 4260 nM.

On to `C[C@H]1COCCN1C(=O)c1cc2ccc(-c3cnc4c(=O)n(C)ccc4c3)nc2s1` [Compound B62S, 7-methyl-3-(2-(((3S)-3-methyl-4-morpholinyl)carbonyl)thieno[2,3-b]pyridin-6-yl)-1,7-naphthyridin-8(7H)-one], for which the IC50 was determined as 39.2 nM.

Take `C[C@@H]1COCCN1C(=O)c1cc2ccc(-c3cnc4ncn(C)c4c3)nc2s1` [Compound B63R, (6-(1-methyl-1H-imidazo[4,5-b]pyridin-6-yl)thieno[2,3-b]pyridin-2-yl)((3R)-3-methyl-4-morpholinyl)methanone]: the IC50 was 5.17 nM.

On to `C[C@H]1COCCN1C(=O)c1cc2ccc(-c3cnc4ncn(C)c4c3)nc2s1` [Compound B63S, (6-(1-methyl-1H-imidazo[4,5-b]pyridin-6-yl)thieno[2,3-b]pyridin-2-yl)((3S)-3-methyl-4-morpholinyl)methanone], for which the IC50 came to 5.68 nM.

Take `Cn1nccc1-c1nc(-c2cnc(=O)[nH]c2)nc2sc(C(=O)N3CCC(F)(F)CC3)cc12` [Compound C38, 5-(6-((4,4-difluoro-1-piperidinyl)carbonyl)-4-(1-methyl-1H-pyrazol-5-yl)thieno[2,3-d]pyrimidin-2-yl)-2(1H)-pyrimidinone]: the IC50 stood at 16 nM.

`Cn1cc2cc(-c3cnc4cc(C(=O)N5CCC(F)(F)CC5)sc4n3)cnc2n1` [Compound C39]: the IC50 is 1.38 nM.
